Consider 23 molecules from patent publication US20230357239A1, “PYRIDO[2,3-D]PYRIMIDIN-4-AMINES AS SOS1 INHIBITORS” (Bayer Aktiengesellschaft, priority 2020, published 2023).

Chain of human SOS1 (SOS1) with human K-RasG12C (Q07889 564-1049): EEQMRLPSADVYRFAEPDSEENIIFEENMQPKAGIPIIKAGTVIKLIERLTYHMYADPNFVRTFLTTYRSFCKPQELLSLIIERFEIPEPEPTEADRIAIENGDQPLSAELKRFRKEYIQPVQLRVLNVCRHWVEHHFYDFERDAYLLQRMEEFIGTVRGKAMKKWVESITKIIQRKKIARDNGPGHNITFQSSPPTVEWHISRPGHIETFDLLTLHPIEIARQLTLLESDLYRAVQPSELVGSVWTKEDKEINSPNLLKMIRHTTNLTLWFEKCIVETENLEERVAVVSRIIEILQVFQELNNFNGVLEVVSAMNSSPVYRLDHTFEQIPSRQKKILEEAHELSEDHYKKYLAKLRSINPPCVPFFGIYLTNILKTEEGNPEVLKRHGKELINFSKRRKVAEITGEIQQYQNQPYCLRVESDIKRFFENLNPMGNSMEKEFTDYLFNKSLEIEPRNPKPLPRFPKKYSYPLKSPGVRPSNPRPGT

The assay addresses human SOS1 (SOS1) with human K-RasG12C (Homo sapiens (Human), UniProt Q07889). The experiment in a line: hK-RasG12C interaction assay with hSOS1 (HTRF). The class given is binding. Conditions: GST-hK-RasG12C and His-hSOS1, 60 min incubation at 20° C, mean, read-out: K-RasG12C - SOS interaction assay IC50 - [mol/l] (mean). The protocol: Biochemical Assay: hK-RasG12C Interaction Assay with hSOS1
This assay quantifies the equilibrium interaction of human SOS1 (SOS1) with human K-Ras^G12C (K-RasG12C). Detection of the interaction is achieved by measuring homogenous time-resolved fluorescence resonance energy transfer (HTRF) from antiGST-Europium (FRET donor) bound to GST-K-RasG12C to anti-6His-XL665 bound to His-tagged hSOS1 (FRET-acceptor).
The assay buffer containes 5 mM HEPES pH 7.4 (Applichem), 150 mM NaCl (Sigma), 10 mM EDTA (Promega), 1 mM DTT (Thermofisher), 0.05% BSA Fraction V, pH 7.0, (ICN Biomedicals), 0.0025% (v/v) Igepal (Sigma) and 100 mM KF (FLUKA).
Concentrations of protein batches used are optimized to be within the linear range of the HTRF signal. A Ras working solution is prepared in assay buffer containing typically 10 nM GST-hK-RasG12C and 2 nM antiGST-Eu(K) (Cisbio, France). A SOS1 working solution is prepared in assay buffer containing typically 20 nM His-hSOS1 and 10 nM anti-6His-XL665 (Cisbio, France). An inhibitor control solution is prepared in assay buffer containing 10 nM anti-6His-XL665 without SOS1.
Fifty nl of a 100-fold concentrated solution of the test compound in DMSO are transferred into a black microtiter test plate (384 or 1536, Greiner Bio-One, Germany).
For this, either a Hummingbird liquid handler (Digilab, MA, USA) or an Echo acoustic system (Labcyte, CA, USA) is used.
All steps of the assay are performed at 20° C. A volume of 2.5 μl of the Ras working solution is added to all wells of the test plate using a Multidrop dispenser (Thermo Labsystems). After 2 min preincubation, 2.5 μl of the SOS1 working solution are added to all wells except for those wells at the side of the test plate that are subsequently filled with 2.5 μl of the inhibitor control solution. After 60 min incubation the fluorescence is measured with a Pherastar (BMG, Germany) using the HTRF module (excitation 337 nm, emission 1: 620 nm, emission 2: 665 nm).
The ratiometric data (emission 2 divided by emission 1) are normalized using the controls (DMSO=0% inhibition, inhibition control wells with inhibitor control solution=100% inhibition). […] IC50 values are calculated by 4-Parameter fitting using a commercial software package (Genedata Screener, Switzerland).
As to `CC(=O)N1C[C@H]2C[C@@H]1CN2c1cnc2nc(C)nc(N[C@H](C)c3cccc(C(F)(F)C(C)(C)O)c3F)c2c1` [Example 51, 1-{(1 R,4R)-5-[4-({(1R)-1-[3-(1,1-difluoro-2-hydroxy-2-methylpropyl)-2-fluorophenyl]ethyl}amino)-2-methylpyrido[2,3-d]pyrimidin-6-yl]-2,5-diazabicyclo[2.2.1]heptan-2-yl}ethan-1-one], the IC50 was 9.79 nM.

For `CC(=O)N1CC=C(c2cnc3nc(C)nc(N[C@H](C)c4cccc(C(F)(F)F)c4C)c3c2)CC1` [Example 26, 1-{4-[2-methyl-4-({(1R)-1-[2-methyl-3-(trifluoromethyl)phenyl]ethyl}amino)pyrido[2,3-d]pyrimidin-6-yl]-3,6-dihydropyridin-1(2H)-yl}ethan-1-one hydrogen], the IC50 was 5.75 nM.

In the case of `Cc1nc(N[C@H](C)c2cccc(C(F)(F)F)c2C)c2cc(N3CCCS3(=O)=O)c(C)nc2n1` [Example 58, 2-[2,7-dimethyl-4-({(1R)-1-[2-methyl-3-(trifluoromethyl)phenyl]ethyl}amino)pyrido[2,3-d]pyrimidin-6-yl]-1 lambda^6,2-thiazolidine-1,1-dione], the IC50 was 15.9 nM.

Regarding `Cc1nc(N[C@H](C)c2cccc(C(F)(F)F)c2C)c2cc(Br)cnc2n1` [Example 6, 6-bromo-2-methyl-N-{(1R)-1-[2-methyl-3-(trifluoromethyl)phenyl]ethyl}pyrido[2,3-d]pyrimidin-4-amine], the IC50 amounted to 251 nM.

As for `CC(=O)N1CCN(S(=O)(=O)c2cnc3nc(C)nc(N[C@H](C)c4cccc(C(F)(F)F)c4C)c3c2)CC1` [Example 17, 1-{4-[2-methyl-4-({(1R)-1-[2-methyl-3-(trifluoromethyl)phenyl]ethyl}amino)pyrido[2,3-d]pyrimidine-6-sulfonyl]piperazin-1-yl}ethan-1-one], the IC50 amounted to 3.56 nM.

Take `CC(=O)N[C@@H]1CCN(c2cnc3nc(C)nc(N[C@H](C)c4cccc(C(F)(F)C(C)(C)O)c4F)c3c2)C1` [Example 55, N-{(3R)-1-[4-({(1R)-1-[3-(1,1-difluoro-2-hydroxy-2-methylpropyl)-2-fluorophenyl]ethyl}amino)-2-methylpyrido[2,3-d]pyrimidin-6-yl]pyrrolidin-3-yl}acetamide]: the IC50 was 4.46 nM.

`CC(=O)N1CC2(C1)CN(c1cnc3nc(C)nc(N[C@H](C)c4cccc(C(F)(F)C(C)(C)O)c4F)c3c1)C2` [Example 54, 1-{6-[4-({(1R)-1-[3-(1,1-difluoro-2-hydroxy-2-methylpropyl)-2-fluorophenyl]ethyl}amino)-2-methylpyrido[2,3-d]pyrimidin-6-yl]-2,6-diazaspiro[3.3]heptan-2-yl}ethan-1-one]: the IC50 is 3.52 nM.

On to `CC(=O)N1CCC(c2cnc3ncnc(N[C@H](C)c4cccc(C(F)(F)F)c4)c3c2)CC1` [Example 9, 1-{4-[4-({(1R)-1-[3-(trifluoromethyl)phenyl]ethyl}amino)pyrido[2,3-d]pyrimidin-6-yl]piperidin-1-yl}ethan-1-one], for which the IC50 came to 64.3 nM.

On to `CC(=O)N1CCN(c2cc3c(N[C@H](C)c4cccc(C(F)(F)F)c4C)nc(C)nc3nc2C)CC1` [Example 19, 1-{4-[2,7-dimethyl-4-({(1R)-1-[2-methyl-3-(trifluoromethyl)phenyl]ethyl}amino)pyrido[2,3-d]pyrimidin-6-yl]piperazin-1-yl}ethan-1-one], for which the IC50 is 8.25 nM.

Take `CC(=O)N1CC=C(c2cnc3nc(C)nc(N[C@H](C)c4cccc(C(F)F)c4F)c3c2)CC1` [Example 43, 1-{4-[4-({(1R)-1-[3-(difluoromethyl)-2-fluorophenyl]ethyl}amino)-2-methylpyrido[2,3-d]pyrimidin-6-yl]-3,6-dihydropyridin-1(2H)-yl}ethan-1-one]: the IC50 was determined as 5.2 nM.

`CC(=O)N1C[C@@H]2C[C@H]1CN2c1cc2c(N[C@H](C)c3cccc(C(F)(F)C(C)(C)O)c3F)nc(C)nc2nc1C` [Example 64, 1-{(1 S,4S)-5-[4-({(1R)-1-[3-(1,1-difluoro-2-hydroxy-2-methylpropyl)-2-fluorophenyl]ethyl}amino)-2,7-dimethylpyrido[2,3-d]pyrimidin-6-yl]-2,5-diazabicyclo[2.2.1]heptan-2-yl}ethan-1-one]: the IC50 stood at 4.35 nM.

In the case of `CC(=O)N1CC=C(c2cnc3nc(C)nc(N[C@H](C)c4cccc(C(F)(F)F)c4C)c3c2)C1` [Example 30, 1-{3-[2-methyl-4-({(1R)-1-[2-methyl-3-(trifluoromethyl)phenyl]ethyl}amino)pyrido[2,3-d]pyrimidin-6-yl]-2,5-dihydro-1H-pyrrol-1-yl}ethan-1-one], the IC50 was 38 nM.

For the molecule `Cc1nc(N[C@H](C)c2cccc(C(F)(F)F)c2C)c2cc(N(C)S(C)(=O)=O)cnc2n1` [Example 33, N-methyl-N-[2-methyl-4-({(1R)-1-[2-methyl-3-(trifluoromethyl)phenyl]ethyl}amino)pyrido[2,3-d]pyrimidin-6-yl]methanesulfonamide], the IC50 is 27.9 nM.

On to `C[C@@H](Nc1ncnc2ncc(Br)cc12)c1cccc(C(F)(F)F)c1` [Example 1, 6-bromo-N-{(1R)-1-[3-(trifluoromethyl)phenyl]ethyl}pyrido[2,3-d]pyrimidin-4-amine], for which the IC50 is 409 nM.

Turning to `Cc1nc(N[C@H](C)c2cccc(C(F)(F)C(C)(C)O)c2F)c2cc(N3CCN(C)CC3)cnc2n1` [Example 52, 1,1-difluoro-1-{2-fluoro-3-[(1R)-1-{[2-methyl-6-(4-methylpiperazin-1-yl)pyrido[2,3-d]pyrimidin-4-yl]amino}ethyl]phenyl}-2-methylpropan-2-ol], the IC50 worked out at 4.48 nM.

For the molecule `C[C@@H](Nc1ncnc2ncc(N3CCN(C)CC3)cc12)c1cccc(C(F)(F)F)c1` [Example 3, 6-(4-methylpiperazin-1-yl)—N-{(1R)-1-[3-(trifluoromethyl)phenyl]ethyl}pyrido[2,3-d]pyrimidin-4-amine], the IC50 was 13.9 nM.

As for `CC(=O)N1CC[N+]([O-])(c2cnc3nc(C)nc(N[C@H](C)c4cccc(C(F)(F)F)c4C)c3c2)CC1` [Example 36, 1-{4-[2-methyl-4-({(1R)-1-[2-methyl-3-(trifluoromethyl)phenyl]ethyl}amino)pyrido[2,3-d]pyrimidin-6-yl]-4-oxo-4lambda^5-piperazin-1-yl}ethan-1-one], the IC50 stood at 6.46 nM.

As to `CC(=O)N1CCC(c2cnc3nc(C)nc(N[C@H](C)c4cccc(C(F)(F)F)c4C)c3c2)C1` (mixture of isomers) [Example 31, 1-{(3RS)-3-[2-methyl-4-({(1R)-1-[2-methyl-3-(trifluoromethyl)phenyl]ethyl}amino)pyrido[2,3-d]pyrimidin-6-yl]pyrrolidin-1-yl}ethan-1-one], the IC50 was found to be 11.9 nM.

On to `CC(=O)N1CC2(C1)CN(c1cc3c(N[C@H](C)c4cccc(C(F)F)c4F)nc(C)nc3nc1C)C2` [Example 37, 1-{6-[4-({(1R)-1-[3-(difluoromethyl)-2-fluorophenyl]ethyl}amino)-2,7-dimethylpyrido[2,3-d]pyrimidin-6-yl]-2,6-diazaspiro[3.3]heptan-2-yl}ethan-1-one], for which the IC50 came out at 8.47 nM.

With `CC(=O)N1C[C@@H]2C[C@H]1CN2c1cnc2nc(C)nc(N[C@H](C)c3cccc(C(F)(F)F)c3C)c2c1` [Example 14, 1-{(1S,4S)-5-[2-methyl-4-({(1R)-1-[2-methyl-3-(trifluoromethyl)phenyl]ethyl}amino)pyrido[2,3-d]pyrimidin-6-yl]-2,5-diazabicyclo[2.2.1]heptan-2-yl}ethan-1-one], the IC50 came to 5.15 nM.

Regarding `COc1cnc2nc(C)nc(N[C@H](C)c3cccc(C(F)(F)F)c3C)c2c1` [Example 32, 6-methoxy-2-methyl-N-{(1R)-1-[2-methyl-3-(trifluoromethyl)phenyl]ethyl}pyrido[2,3-d]pyrimidin-4-amine], the IC50 is 66.4 nM.

On to `CC(=O)N[C@@H]1CCN(c2cnc3ncnc(N[C@H](C)c4cccc(C(F)(F)F)c4C)c3c2)C1` [Example 11, N-{(3R)-1-[4-({(1R)-1-[2-methyl-3-(trifluoromethyl)phenyl]ethyl}amino)pyrido[2,3-d]pyrimidin-6-yl]pyrrolidin-3-yl}acetamide], for which the IC50 turned out to be 17.6 nM.

Regarding `CC(=O)N1CCC(c2cc3c(N[C@H](C)c4cccc(C(F)(F)C(C)(C)O)c4F)nc(C)nc3nc2C)CC1` [Example 66, 1-{4-[4-({(1R)-1-[3-(1,1-difluoro-2-hydroxy-2-methylpropyl)-2-fluorophenyl]ethyl}amino)-2,7-dimethylpyrido[2,3-d]pyrimidin-6-yl]piperidin-1-yl}ethan-1-one], the IC50 was 3.18 nM.
